From publication PMC1361622 (2006)

System: construct 1 (consensus-type glmS ribozyme, A6 and A58) (RNA, ribozyme) GGUAAAUUAUAAAAGCGCCAGAACUACAGAAAUGUAGUUGACGAGGAGGAGGUUUAUCGAAUUUUCGGCGGAUGCCUCC
Assay: half-maximal kobs of ligand-dependent self-cleavage
Settings: 20 mM Mg2+; 50 mM Tris-HCl pH 7.5, 23 °C; GlcN6P varied

In the case of `N[C@H]1C(O)O[C@H](COP(=O)(O)O)[C@@H](O)[C@@H]1O` (stereo partly shown), the “apparent Kd” value is reported as ~ 200 µM.
